Measurements taken from US20230172920A1, “DOSING REGIMEN FOR TREATING A DISEASE MODULATED BY CSF-1R” (Novartis AG, priority 2020, published 2023).
Read-outs that look alike come from different tables or passages of the source.

Legend:
[1] = Blood and spinal cord exposure, 8-week SOD1G93A efficacy study; format: in vivo, SOD1G93A mouse; conditions: for Kp at 3 h / concentration at 3 h: mouse; for Kp at 3 h: spinal cord relative to blood; for concentration at 3 h: blood, read-out: Blood conc.
Method: (§1) BLZ945 was dosed over an 8-week period in a mouse model of ALS (in house data). BLZ945 was tested for efficacy in preventing or delaying disease progression in the SOD1G93A ALS mouse (RD-2019-00092). […] Normal body weight gain is also impaired in this model. These physiological impairments are considered as mechanistic readouts given that they best recapitulate the clinical disease phenotype (Turner et al 2013). Animals were dosed from 8 to 16 weeks of age with daily (q.d) doses of BLZ945 at either 65 mg/kg, 170 mg/kg, or 170 mg/kg delivered intermittently with a 7 day ON/7 day OFF regimen.
(§2) Microglia were depleted by greater than 90% with the high dose (170 mg/kg) of BLZ945 and by about 50% with the low dose (65 mg/kg). […] Blood and CNS exposure to BLZ945 were measured at 3 hours post-dose on the day of necropsy (Table 8). BLZ945 spinal cord exposure ratios (relative to blood) were consistent across dose groups at approximately 0.4 (Table 9).

microglia [2] = assay: Microglia depletion in lumbar spinal cord, Iba1 qPCR, 8-week SOD1G93A efficacy study (RD-2019-00092); format: in vivo, SOD1G93A mouse; conditions: for microglia depleted (lumbar spinal cord): 8 weeks
Method: as §1, §2
FIG. 11: Microglia depletion in the lumbar spinal cord, assessed by Iba1 transcript expression by qPCR. Samples were collected at necropsy on the final day of dosing of the eight-week study. Values are group means±SD (n=12-15). Data are presented as fold changes in comparison to the SOD1 vehicle-treated group. Statistical analyses were by Kruskal-Wallis test with Dunn's multiple comparison

Soluble TREM2 = Soluble TREM2 in plasma and CSF, 13-wk cynomolgus monkey study (1779034); format: in vivo; conditions: for TREM2 plasma values: 7 days-on 7 days-off, mid- and high-doses; for decrease of soluble TREM2 in CSF: high dose
Method: In a preclinical 13-wk study (Study number 1779034), cynomolgus monkey were treated with 30, 60 and 200 mg/kg/day BLZ945 on daily oral dosing or at 60 and 200 mg/kg/day on 7 days-on and 7 days-off treatment cycles. With either regimen, the dosing period was for 91 days followed by a drug-free period up to a total of […]. Plasma was collected at pre-dose, during the dosing period at different time points and during the recovery time, and CSF was collected at necropsy at end of dosing and recovery periods. Soluble TREM2, a biomarker of microglial activation, was measured in plasma and CSF.

microglia [3] = assay: CNS microglia clearance in mice, Iba1/Aif-1 staining of cortex (RD-2019-00100); format: in vivo; conditions: for microglial depletion / microglial reduction: 5 consecutive days; for microglia brain repopulation: 169 mg/kg qd 5 days; for microglia depleted in the cortex: 169 mg/kg qd
Method: Several studies were performed to understand PK/PD relationships for CNS microglia clearance in mice. In the first study (RD-2019-00100) mice were treated once daily (qd) for between 1 and 5 consecutive days with a dose of 169 mg/kg BLZ945. Additionally, two dose groups received 169 mg/kg BLZ945 for 5 consecutive days followed by either 3 or 7 days of drug withdrawal (washout). […] Pharmacokinetic analysis was performed on blood and brain samples taken from each group at 3 hours after the final dose on the indicated necropsy day. […] Exposures dropped by more than 1000-fold following the washout period (FIG. 8 B).
FIG. 8: (A) Microglial depletion in the cortex, as assessed by Iba1/Aif-1 immunohistological staining at necropsy. Sections were analyzed for total number of microglia cell bodies per sample area. Values are group means±SD (n=3). (B) Exposure of BLZ945 in blood and brain 3 hours after the last dose on the day of necropsy. Values are group means (n=3).
In a follow-up study (RD-2019-00100), mice were treated with BLZ945 for 5 consecutive days with a range of doses from 7 to 169 mg/kg. The two lowest doses of 7 mg/kg and 20 mg/kg were ineffective for microglial depletion. […] Here the ratio of brain to blood exposures was approximately 30% at the four lowest doses and approximately 55% at the highest dose (FIG. 9 B).
FIG. 9: Dose-dependent reduction of microglia. (A) Mice were treated for 5 consecutive days with BLZ945 at the indicated doses. Samples were analyzed histologically by Iba1/Aif-1 staining and quantified for total microglia cell bodies per sample area. Data are group means±SD (n=3). (B) Exposure of BLZ945 in blood and brain following 5 consecutive days of dosing at multiple doses. Values are group means±SD (n=3).

SOD1G93A ALS mouse = assay: Body weight, grip strength and CMAP in the SOD1G93A ALS mouse, 8-week study (RD-2019-00092); format: in vivo
Method: as §1
FIG. 12: The effect of BLZ945 on body weight change over the eight-week study period. Data are presented as the percentage of body weight change relative to the first dosing day. Values are group means ([…]). Statistical analysis was by mixed linear effect model for repeated measures. * p<0.05; ** p<0.01; **** p<0.0001.
Hind limb grip strength and compound muscle action potentials (CMAP), an assessment of neuromuscular integrity, were measured as mechanistic readouts. In grip strength measurements, SOD1 G93A mice lost muscle force continuously after the 8th week of age. […] This was intermediate to the vehicle-treated SOD1 G93A and NCAR controls (FIG. 13 A). […] However, CMAPs were still lower than those of NCAR animals from study week 4 onward.
FIG. 13: (A) The effect of BLZ945 on grip strength over the eight-week study period. Values are group means±SD (n=12-15). Statistical analysis was by mixed linear effect model for repeated measures. * p<0.05; ** p<0.01; *** p<0.001. (B) The effect of BLZ945 on TA muscle CMAP over the eight-week study period. Values are group means±SD (n=12-15). Statistical analysis was by mixed linear effect model for repeated measures. * […]; ** p<0.01; *** p<0.001.

CNC(=O)c1cc(Oc2ccc3nc(N[C@@H]4CCCC[C@H]4O)sc3c2)ccn1 [BLZ945, 4-((2-(((1R,2R)-2-hydroxycyclohexyl)amino)benzo[d]thiazol-6-yl)oxy)-N-methylpicolinamide]
Spinal Cord Conc. ([1]; 65 mg/kg q.d., 3 h post-dose): 11799.8 pmol/g | Spinal Cord Conc. ([1]; 170 mg/kg CONT, 3 h post-dose): 28358.8 pmol/g | Spinal Cord Conc. ([1]; 170 mg/kg INT (7 day ON/7 day OFF), 3 h post-dose): 18573.5 pmol/g | Kp at 3 h ([1]; SOD1G93A (transgenic ALS model), 170 mg/kg CONT, 3 h post-dose, read-out: Spinal Cord/Blood ratio): 0.42 | concentration at 3 h ([1]; SOD1G93A, 65 mg/kg, 65 mg/kg q.d., 3 h post-dose): 29.3 µM | concentration at 3 h ([1]; SOD1G93A, 170 mg/kg, 170 mg/kg CONT, 3 h post-dose): 66.3 µM | concentration at 3 h ([1]; SOD1G93A, 170 mg/kg, 170 mg/kg INT (7 day ON/7 day OFF), 3 h post-dose): 50.4 µM | Kp at 3 h ([1]; SOD1G93A, 65 mg/kg q.d., 3 h post-dose, read-out: Spinal Cord/Blood ratio): 0.42 | Kp at 3 h ([1]; SOD1G93A, 170 mg/kg INT (7 day ON/7 day OFF), 3 h post-dose, read-out: Spinal Cord/Blood ratio): 0.36 | Kp at 3 h ([1]; SOD1G93A, across dose groups, 3 hours post-dose, read-out: spinal cord exposure ratios (relative to blood)): ~0.4 | microglia depleted (lumbar spinal cord) (microglia [2]; 65 mg/kg q.d.): about 50% | microglia recovery compared to high dose animals (microglia [2]; 170 mg/kg 7 day ON/7 day OFF, sacrificed at 7 days off): greater than 50% | microglia depleted (lumbar spinal cord) (microglia [2]; 170 mg/kg q.d. continuous): greater than 90% | TREM2 plasma values (Soluble TREM2; end of off-treatment week): in the range of control values at end of off-treatment week | TREM2 plasma values (Soluble TREM2; end of on-treatment weeks): decreased at end of on-treatment weeks | decrease of soluble TREM2 in CSF (Soluble TREM2; continuous dosing 3 months): about 25 fold | time for plasma TREM2 to return to baseline after cessation of dosing (Soluble TREM2; continuous dosing regimen): ≤ 7 days | soluble TREM2 values at end of recovery phase (Soluble TREM2; high daily and high on/off treatment groups): returned to that of untreated controls | plasma TREM2, remaining (Soluble TREM2; mid-continuous (60 mg/kg/day) and high continuous (200 mg/kg/day) daily oral dosing): 40-45 % of the predose value | decrease of soluble TREM2 in CSF (Soluble TREM2; on-off dosing 3 months): about 4.6 fold | microglial depletion (microglia [3]; 7 mg/kg): ineffective | microglial depletion (microglia [3]; 20 mg/kg): ineffective | microglial reduction (microglia [3]; 60 mg/kg): 25% | microglial reduction (microglia [3]; 100 mg/kg): 60% | microglia brain repopulation (microglia [3]; then 3 days washout): ~80 % of vehicle | microglia brain repopulation (microglia [3]; then 7 days washout): complete repopulation | microglia depleted in the cortex (microglia [3]; day 2): approximately 50% | microglia depleted in the cortex (microglia [3]; day 5): approximately 90% | microglial reduction (microglia [3]; 169 mg/kg): 100% | tibialis anterior muscle CMAP (SOD1G93A ALS mouse; 65 mg/kg): significantly higher CMAPs than untreated controls until week 6 | body weight gain at end of study (SOD1G93A ALS mouse; 65 mg/kg and 170 mg/kg 7 days on/7 days off groups, NCAR approx. 16%, vehicle approx. 7%): approximately 12% | hind limb grip strength (SOD1G93A ALS mouse; 65 mg/kg, vs vehicle-treated SOD1 G93A controls, up to week 6 of dosing): significantly higher grip strength | body weight gain (SOD1G93A ALS mouse; 170 mg/kg continuously, 8 weeks): constant weight gain at the same rate as NCAR mice | tibialis anterior muscle CMAP (SOD1G93A ALS mouse; 170 mg/kg, continuous or intermittent dosing): significantly reduced decline in CMAPs throughout the study period | hind limb grip strength (SOD1G93A ALS mouse; 170 mg/kg, continuously or intermittently, vs vehicle-treated SOD1 G93A): maintained significantly greater grip force throughout the study period
